In patent US7563788B2, “Substituted Imidazo[1,2-a]pyridines as Antibacterial Agents” (Pfizer Inc., priority 2004, dated 2009):
Converted amounts (≈) assume the structure as drawn.

Tested on: Neisseria gonorrhoeae, GC525 (NG-2888)
Assay: In-vitro antibacterial activity, microbroth dilution MIC susceptibility testing
Type: cell-based
Conditions: gonococcal broth, 20-24 hours at 35° C., lowest concentration preventing visible growth
Description: The in-vitro antibacterial activity of selected compounds was determined against a stain of Neisseria gonorrhoeae, GC525 (NG-2888), which is described by Rouquette-Loughlin et al, in Journal of Bacteriology, February 2003, p. 1101-1106, at p. 1103. In general, minimum inhibitory concentration (MIC) susceptibility testing followed procedures recommended by the National Committee for Clinical Laboratory Standards (NCCLS^1-2) or followed the descriptions described below:
Neisseria gonorrhoeae strains were grown on Chocolate Agar II plates (BBL—Becton Dickinson Microbiology Systems, Cockeysville, Md.) and incubated at 35° C. in a humidified 5% CO2 incubator (Forma Scientific, Marietta Ohio). For microbroth dilution MIC testing, N. gonorrhoeae were tested in gonococcal broth (GCB):
Bacterial culture identifications were confirmed by standard microbiological methods.^4 N. gonorrhoeae strains were streaked onto appropriate agar plates for visualization of purity and expected colony morphology. Gram stains were also utilized.
Bacterial stock cultures are stored as frozen suspensions at −70° C. N. gonorrhoeae cultures are suspended in inactivated Horse Serum (Colorado Serum Company, Denver, Colo.) containing 7.5% glucose prior to snap freezing in a dry ice/ethanol bath.
Frozen stock cultures were used as the initial source of organisms for performing microbroth dilution MIC testing. Stock cultures were passed on their respective growth medium at least one growth cycle (18-24 hours) prior to their use. Bacterial culture suspensions were prepared directly from Chocolate Agar II plates into 10 mL cation-adjusted Mueller-Hinton Broth (CAMHB, BBL, # BB215069). Before use, cultures were adjusted to an optical density value of […] on a Perkin-Elmer Lambda EZ150 Spectrophotometer (Wellesley, Mass.) set at a wavelength of 600 nm. Random cultures were plated for validation of actual colony counts. The adjusted cultures were diluted 400-fold (0.25 mL inoculum+100 mL GCB) into gonococcal broth producing a starting inoculum of approximately 5×10^5 cfu/mL. These cultures were inoculated into test plates (100 uL/well) using a Biomek® FX workstation (Beckman Coulter Inc., Fullerton, Calif.). The inoculated plates were placed in stacks of no more than 4 and covered with an empty plate. Plates were incubated for 20-24 hours at 35° C. in a humidified CO2 incubator.
Drug stock solutions (2 mg/mL in DMSO) were prepared on the day of testing. Drugs were weight corrected for assay content where necessary.
Microbroth dilution stock plates were prepared in two dilution series, 64-0.06 ug drug/mL and 1-0.001 ug drug/mL. For the high concentration series, 200 uL of stock solution (2 mg/mL) was added to duplicate rows of a 96-well plate. This was used as the first well in the dilution series. Serial two-fold decremental dilutions were made using a BioMek FX robot (Beckman Coulter Inc., Fullerton, Calif.) with 10 of the remaining 11 wells, each of which contained 100 uL of the appropriate solvent/diluent. Row 12 contained solvent/diluent only and served as the control. For tube one of the low concentration series, 200 uL of a 31.25 ug/mL stock was added to duplicate rows of a 96-well plate. Serial two-fold dilutions were made as described above.
Daughter plates were spotted (3.2 uL/well) from the stock plates listed above using the BioMek FX robot and were inoculated with organism (100 uL/well) as described previously.
After incubation, the degree of growth in each well was read visually with the aid of a Test Reading Mirror (Dynatech Lab 220-16, Dynex Technologies, Chantilly, Va.). 96-well test plates are read in a darkened room with a single light shining from above. The MIC is the lowest concentration of drug that prevents macroscopically visible growth under the conditions of the test. Each drug dilution series was tested in duplicate; identical results are not always obtained. If MIC values in duplicate tests differ by 1 well (two-fold), the […] value is reported. […]

Compound	MIC
CCNC(=O)Nc1cn2ccc(-c3cccnc3)cc2n1 [Example 1B, 1-Ethyl-3-(7-pyridin-3-yl-imidazo[1,2-a]pyridin-2-yl)-urea]	16 mg/L (≈ 56.9 µM)
CCNC(=O)Nc1cn2ccc(-c3ccc(N)nc3)cc2n1 [Example 34, 1-[7-(6-Amino-pyridin-3-yl)-imidazo[1,2-a]pyridin-2-yl]-3-ethyl-urea]	16 mg/L (≈ 54 µM)
CCNC(=O)Nc1cn2ccc(-c3ccnc(N)c3)cc2n1 [Example 42, 1-[7-(2-Amino-pyridin-4-yl)-imidazo[1,2-a]pyridin-2-yl]-3-ethyl-urea]	64 mg/L (≈ 216 µM)
CCNC(=O)Nc1cn2ccc(C(=O)O)cc2n1 [Example 24, 2-(3-Ethyl-ureido)-imidazo[1,2-a]pyridine-7-carboxylic Acid]	> 64 mg/L
CCNC(=O)Nc1cn2ccc(-c3noc(=O)[nH]3)cc2n1 [Example 41, 1-Ethyl-3-[7-(5-oxo-4,5-dihydro-[1,2,4]oxadiazol-3-yl)-imidazo[1,2-a]pyridin-2-yl]-urea]	> 64 mg/L
CCNC(=O)Nc1cn2c(C(=O)NCC)cc(-c3cnc(N(C)C)nc3)cc2n1 [Example 50, 7-(2-Dimethylamino-pyrimidin-5-yl)-2-(3-ethyl-ureido)-imidazo[1,2-a]pyridine-5-carboxylic Acid Ethylamide]	2 mg/L (≈ 5.04 µM)
CCCNC(=O)Nc1cn2ccc(-c3cncnc3)cc2n1 [Example 29, 1-Propyl-3-(7-pyrimidin-5-yl-imidazo[1,2-a]pyridin-2-yl)-urea]	16 mg/L (≈ 54 µM)
O=C(Nc1cn2ccc(-c3cncnc3)cc2n1)NC1CCC1 [Example 33, 1-Cyclobutyl-3-(7-pyrimidin-5-yl-imidazo[1,2-a]pyridin-2-yl)-urea]	16 mg/L (≈ 51.9 µM)
CCNC(=O)Nc1cn2ccc(-c3ccc(F)nc3)cc2n1 [Example 46, 1-Ethyl-3-[7-(6-fluoro-pyridin-3-yl)-imidazo[1,2-a]pyridin-2-yl]-urea]	16 mg/L (≈ 53.5 µM)
O=C(Nc1cn2ccc(-c3cncnc3)cc2n1)NC1CC1 [Example 27, 1-Cyclopropyl-3-(7-pyrimidin-5-yl-imidazo[1,2-a]pyridin-2-yl)-urea]	64 mg/L (≈ 217 µM)
CCNC(=O)Nc1cn2ccc(-c3c(C)noc3C)cc2n1 [Example 9, 1-[7-(3,5-Dimethyl-isoxazol-4-yl)-imidazo[1,2-a]pyridin-2-yl]-3-ethyl-urea]	> 64 mg/L
CCNC(=O)Nc1cn2ccc(-c3ccc(N4CCN(C)CC4)nc3)cc2n1 [Example 11, 1-Ethyl-3-{7-[6-(4-methyl-piperazin-1-yl)-pyridin-3-yl]-imidazo[1,2-a]pyridin-2-yl}-urea]	64 mg/L (≈ 169 µM)
CCNC(=O)Nc1cn2c(CO)cc(-c3cccnc3)cc2n1 [Example 7A, 1-Ethyl-3-(5-hydroxymethyl-7-pyridin-3-yl-imidazo[1,2-a]pyridin-2-yl)-urea]	5.66 mg/L (≈ 18.2 µM)
CCNC(=O)Nc1cn2ccc(-c3c(C)n[nH]c3C)cc2n1 [Example 25, 1-[7-(3,5-Dimethyl-1H-pyrazol-4-yl)-imidazo[1,2-a]pyridin-2-yl]-3-ethyl-urea]	64 mg/L (≈ 215 µM)
CCNC(=O)Nc1cn2ccc(-c3cn[nH]c3)cc2n1 [Example 15, 1-Ethyl-3-[7-(1H-pyrazol-4-yl)-imidazo[1,2-a]pyridin-2-yl]-urea]	64 mg/L (≈ 237 µM)
CCNC(=O)Nc1cn2ccc(-c3csnn3)cc2n1 [Example 39, 1-Ethyl-3-(7-[1,2,3]thiadiazol-4-yl-imidazo[1,2-a]pyridin-2-yl)-urea]	16 mg/L (≈ 55.5 µM)
CCNC(=O)Nc1cn2c(-c3nc(C)no3)cc(-c3cccnc3)cc2n1 [Example 45, 1-Ethyl-3-[5-(3-methyl-[1,2,4]oxadiazol-5-yl)-7-pyridin-3-yl-imidazo[1,2-a]pyridin-2-yl]-urea]	0.25 mg/L (≈ 0.688 µM)
CCNC(=O)Nc1cn2ccc(-c3nc(C)n[nH]3)cc2n1 [Example 20, 1-Ethyl-3-[7-(5-methyl-2H-[1,2,4]triazol-3-yl)-imidazo[1,2-a]pyridin-2-yl]-urea]	> 64 mg/L
CCNC(=O)Nc1cn2ccc(-c3ccnc(NC(=O)OC(C)(C)C)c3)cc2n1 [Example 37, {4-[2-(3-Ethyl-ureido)-imidazo[1,2-a]pyridin-7-yl]-pyridin-2-yl}-carbamic Acid Tert-Butyl Ester]	64 mg/L (≈ 161 µM)

Continued, values first:

MIC	Compound
45.3 mg/L (≈ 110 µM)	CCNC(=O)Nc1cn2ccc(-c3ccc(OCCN4CCOCC4)nc3)cc2n1 [Example 6, 1-Ethyl-3-{7-[6-(2-morpholin-4-yl-ethoxy)-pyridin-3-yl]-imidazo[1,2-a]pyridin-2-yl}-urea]
32 mg/L (≈ 108 µM)	CC(C)NC(=O)Nc1cn2ccc(-c3cncnc3)cc2n1 [Example 30, 1-Isopropyl-3-(7-pyrimidin-5-yl-imidazo[1,2-a]pyridin-2-yl)-urea]
0.13 mg/L (≈ 0.322 µM)	CCNC(=O)Nc1cn2c(-c3ncccn3)cc(-c3cnc(N(C)C)nc3)cc2n1 [Example 51, 1-[7-(2-Dimethylamino-pyrimidin-5-yl)-5-pyrimidin-2-yl-imidazo[1,2-a]pyridin-2-yl]-3-ethyl-urea]
> 64 mg/L	CCNC(=O)Nc1cn2ccc(-c3cnc(OC)nc3OC)cc2n1 [Example 13, 1-[7-(2,4-Dimethoxy-pyrimidin-5-yl)-imidazo[1,2-a]pyridin-2-yl]-3-ethyl-urea]
> 64 mg/L	CCNC(=O)Nc1cn2ccc(C(=O)OC)cc2n1 [Example 18, 2-(3-Ethyl-ureido)-imidazo[1,2-a]pyridine-7-carboxylic Acid Methyl Ester]
64 mg/L (≈ 161 µM)	CCNC(=O)Nc1cn2ccc(-c3c(C)nn(C(=O)OC(C)(C)C)c3C)cc2n1 [Example 14, 4-[2-(3-Ethyl-ureido)-imidazo[1,2-a]pyridin-7-yl]-3,5-dimethyl-pyrazole-1-carboxylic Acid Tert-Butyl Ester]
0.13 mg/L (≈ 0.36 µM)	CCNC(=O)Nc1cn2c(-c3cnn(C)c3)cc(-c3cccnc3)cc2n1 [Example 23, 1-Ethyl-3-[5-(1-methyl-1H-pyrazol-4-yl)-7-pyridin-3-yl-imidazo[1,2-a]pyridin-2-yl]-urea]
8 mg/L (≈ 22.2 µM)	CCNC(=O)Nc1cn2ccc(-c3cnn(Cc4ccccc4)c3)cc2n1 [Example 10, 1-[7-(1-Benzyl-1H-pyrazol-4-yl)-imidazo[1,2-a]pyridin-2-yl]-3-ethyl-urea]
64 mg/L (≈ 224 µM)	CCNC(=O)Nc1cn2ccc(-c3nnc(C)o3)cc2n1 [Example 36, 1-Ethyl-3-[7-(5-methyl-[1,3,4]oxadiazol-2-yl)-imidazo[1,2-a]pyridin-2-yl]-urea]
> 64 mg/L	CCOC(=O)Nc1cn2cnc(-c3cccnc3)cc2n1 [Example 5, (7-Pyridin-3-yl-imidazo[1,2-c]pyrimidin-2-yl)-carbamic Acid Ethyl Ester]
64 mg/L (≈ 260 µM)	CCNC(=O)Nc1cn2ccc(C(C)=O)cc2n1 [Example 35, N-(7-acetylimidazo[1,2-a]pyridin-2-yl)-N′-ethylurea]
0.5 mg/L (≈ 1.47 µM)	CCNC(=O)Nc1cn2c(C(=O)OC)cc(-c3cccnc3)cc2n1 [Example 7B, 2-(3-Ethyl-ureido)-7-pyridin-3-yl-imidazo[1,2-a]pyridine-5-carboxylic Acid Methyl Ester]
64 mg/L (≈ 190 µM)	O=C(NCC(F)(F)F)Nc1cn2ccc(-c3cncnc3)cc2n1 [Example 31, 1-(7-Pyrimidin-5-yl-imidazo[1,2-a]pyridin-2-yl)-3-(2,2,2-trifluoro-ethyl)-urea]
> 64 mg/L	CCNC(=O)Nc1cn2ccc(-c3noc(C(C)C)n3)cc2n1 [Example 40, 1-Ethyl-3-[7-(5-isopropyl-[1,2,4]oxadiazol-3-yl)-imidazo[1,2-a]pyridin-2-yl]-urea]
